Measurements: PubChem BioAssay AID256 (DTP/NCI, 2004)
“And” between values parts separate entries of the source, which are not always exact repeats. Equal entries are not always repeated. Toxic doses and inconclusive results are not listed.

Tested on: CD2F1 mice, L1210 leukemia ip, survival T/C
Experiment: NCI In Vivo Anticancer Drug Screen. Data for tumor model L1210 Leukemia (intraperitoneal) in CD2F1 (CDF1) mice
Conditions: higher = longer survival
In short: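 Mice carrying a transplanted tumor received test compound or vehicle alone. The value is the measurement in the treated group divided by that in the vehicle-treated control group.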

[1] = endpoint: mean survival time, dose: 100.0 mg/kg/injection, schedule: Q04DX002 (ip), vehicle: Klucel (hydroxypropylcellulose) (HPC)
[2] = endpoint: mean survival time, dose: 200.0 mg/kg/injection, schedule: Q04DX002 (ip), vehicle: Klucel (hydroxypropylcellulose) (HPC)
[3] = endpoint: mean survival time, dose: 100.0 mg/kg/injection, schedule: Q04DX003 (ip), vehicle: saline with Tween-80
[4] = endpoint: mean survival time, dose: 200.0 mg/kg/injection, schedule: Q04DX003 (ip), vehicle: saline with Tween-80
[5] = endpoint: mean survival time, dose: 400.0 mg/kg/injection, schedule: Q04DX003 (ip), vehicle: saline with Tween-80
[6] = endpoint: mean survival time, dose: 100.0 mg/kg/injection, schedule: Q04DX003 (ip), vehicle: saline
[7] = endpoint: mean survival time, dose: 12.5 mg/kg/injection, schedule: Q01DX009 (ip), vehicle: saline with Tween-80
[8] = endpoint: mean survival time, dose: 25.0 mg/kg/injection, schedule: Q01DX009 (ip), vehicle: saline with Tween-80

CC1(C)N=C(N)N=C(N)N1c1cccc(/C=C/c2ccc([N+](=O)[O-])cc2)c1
T/C [1]: 103 % of control | T/C [2]: 107 % of control | T/C (endpoint: mean survival time, dose: 400.0 mg/kg/injection, schedule: Q04DX002 (ip), vehicle: Klucel (hydroxypropylcellulose) (HPC)): 95 % of control

CCOC(=O)c1cnn(C)c1N
T/C (endpoint: mean survival time, dose: 100.0 mg/kg/injection, schedule: Q01DX001 (ip), vehicle: saline): 103 % of control | T/C [3]: 102 % of control | T/C (endpoint: mean survival time, dose: 200.0 mg/kg/injection, schedule: Q01DX001 (ip), vehicle: saline): 103 % of control | T/C [4]: 102 % of control | T/C (endpoint: mean survival time, dose: 400.0 mg/kg/injection, schedule: Q01DX001 (ip), vehicle: saline): 97 % of control | T/C [5]: 104 % of control

O=c1sc2ccccc2n1CCSCCn1c(=S)sc2ccccc21
T/C [6]: 93 % of control | T/C (endpoint: mean survival time, dose: 200.0 mg/kg/injection, schedule: Q04DX003 (ip), vehicle: saline): 96 % of control | T/C (endpoint: mean survival time, dose: 400.0 mg/kg/injection, schedule: Q04DX003 (ip), vehicle: saline): 96 % of control

CC(C)(C)N
T/C (endpoint: mean survival time, dose: 100.0 mg/kg/injection, schedule: Q01DX001 (ip), vehicle: saline with Tween-80): 100 % of control | T/C (endpoint: mean survival time, dose: 200.0 mg/kg/injection, schedule: Q01DX001 (ip), vehicle: saline with Tween-80): 97 % of control | T/C (endpoint: mean survival time, dose: 400.0 mg/kg/injection, schedule: Q01DX001 (ip), vehicle: saline with Tween-80): 97 % of control

CC(=O)CC(C)=O.CC(=O)CC(C)=O.CC(=O)CC(C)=O.[Fe]
T/C (endpoint: mean survival time, dose: 6.25 mg/kg/injection, schedule: Q01DX009 (ip), vehicle: saline with Tween-80): 93 % of control | T/C [7]: 97 % of control | T/C (endpoint: mean survival time, dose: 12.5 mg/kg/injection, schedule: Q04DX003 (ip), vehicle: saline with Tween-80): 102 % of control | T/C (endpoint: mean survival time, dose: 25.0 mg/kg/injection, schedule: Q04DX003 (ip), vehicle: saline with Tween-80): 98 % of control

OCC1OC(n2cnc3c(=S)nc(NO)[nH]c32)C(O)C1O (stereo unspecified)
T/C (endpoint: mean survival time, dose: 6.25 mg/kg/injection, schedule: Q01DX005 (ip), vehicle: saline with Tween-80): 196 % of control and 237 % of control | T/C (endpoint: mean survival time, dose: 12.5 mg/kg/injection, schedule: Q01DX005 (ip), vehicle: saline with Tween-80): 164 % of control and 263 % of control | T/C (endpoint: mean survival time, dose: 25.0 mg/kg/injection, schedule: Q01DX005 (ip), vehicle: saline with Tween-80): 102 % of control | T/C (endpoint: mean survival time, dose: 50.0 mg/kg/injection, schedule: Q01DX005 (ip), vehicle: saline with Tween-80): 89 % of control

O=c1cc(Cl)ncn1C1OC(CO)C(O)C1O (stereo unspecified)
T/C (endpoint: median survival time, dose: 12.5 mg/kg/injection, schedule: Q01DX005 (ip), vehicle: saline): 108 % of control | T/C (endpoint: median survival time, dose: 25.0 mg/kg/injection, schedule: Q01DX005 (ip), vehicle: saline): 104 % of control | T/C (endpoint: median survival time, dose: 50.0 mg/kg/injection, schedule: Q01DX005 (ip), vehicle: saline): 95 % of control | T/C (endpoint: median survival time, dose: 100.0 mg/kg/injection, schedule: Q01DX005 (ip), vehicle: saline): 97 % of control | T/C (endpoint: median survival time, dose: 200.0 mg/kg/injection, schedule: Q01DX005 (ip), vehicle: saline): 97 % of control

CCCCCCCCCCCCCCCCOc1ccc(S(=O)(=O)NC(C)(C)C)cc1N
T/C [3]: 96 % of control | T/C [4]: 93 % of control | T/C [5]: 95 % of control

O=C1NC(=O)C(Br)C(=O)N1
T/C (endpoint: mean survival time, dose: 75.0 mg/kg/injection, schedule: Q01DX001 (ip), vehicle: saline): 102 % of control | T/C (endpoint: mean survival time, dose: 150.0 mg/kg/injection, schedule: Q01DX001 (ip), vehicle: saline): 100 % of control

Nc1ccn(C2OC(CO)C(O)C2O)c(=O)n1 (stereo unspecified)
T/C (endpoint: mean survival time, dose: 8.0 mg/kg/injection, schedule: Q X X004 (other), vehicle: saline): 86 % of control | T/C (endpoint: mean survival time, dose: 16.0 mg/kg/injection, schedule: Q01DX008 (ip), vehicle: saline): 95 % of control | T/C (endpoint: mean survival time, dose: 16.0 mg/kg/injection, schedule: Q03HX024 (oral), vehicle: saline): 100 % of control | T/C (endpoint: mean survival time, dose: 30.0 mg/kg/injection, schedule: Q03HX024 (ip), vehicle: saline): 93 % of control | T/C (endpoint: mean survival time, dose: 32.0 mg/kg/injection, schedule: Q01DX008 (ip), vehicle: saline): 93 % of control | T/C (endpoint: mean survival time, dose: 32.0 mg/kg/injection, schedule: Q01DX008 (oral), vehicle: saline): 100 % of control | T/C (endpoint: mean survival time, dose: 64.0 mg/kg/injection, schedule: Q01DX008 (ip), vehicle: saline): 98 % of control | T/C (endpoint: mean survival time, dose: 64.0 mg/kg/injection, schedule: Q01DX008 (oral), vehicle: saline): 98 % of control | T/C (endpoint: mean survival time, dose: 100.0 mg/kg/injection, schedule: Q01DX009 (ip), vehicle: saline): 100 % of control | T/C [6]: 96 % of control | T/C (endpoint: mean survival time, dose: 128.0 mg/kg/injection, schedule: Q01DX001 (ip), vehicle: saline): 120 % of control | T/C (endpoint: mean survival time, dose: 128.0 mg/kg/injection, schedule: Q01DX008 (ip), vehicle: saline): 95 % of control | T/C (endpoint: mean survival time, dose: 128.0 mg/kg/injection, schedule: Q03HX024 (oral), vehicle: saline): 110 % of control and 95 % of control | T/C (endpoint: mean survival time, dose: 128.0 mg/kg/injection, schedule: Q04DX003 (ip), vehicle: saline): 98 % of control | T/C (endpoint: mean survival time, dose: 128.0 mg/kg/injection, schedule: Q04DX003 (oral), vehicle: saline): 120 % of control and 100 % of control | T/C (endpoint: mean survival time, dose: 200.0 mg/kg/injection, schedule: Q01DX009 (ip), vehicle: saline): 93 % of control | T/C (endpoint: mean survival time, dose: 256.0 mg/kg/injection, schedule: Q01DX001 (ip), vehicle: saline): 91 % of control | T/C (endpoint: mean survival time, dose: 256.0 mg/kg/injection, schedule: Q01DX001 (oral), vehicle: saline): 98 % of control | T/C (endpoint: mean survival time, dose: 256.0 mg/kg/injection, schedule: Q01DX009 (ip), vehicle: saline): 91 % of control | T/C (endpoint: mean survival time, dose: 256.0 mg/kg/injection, schedule: Q04DX003 (oral), vehicle: saline): 98 % of control | T/C (endpoint: mean survival time, dose: 512.0 mg/kg/injection, schedule: Q01DX001 (ip), vehicle: saline): 120 % of control and 97 % of control | T/C (endpoint: mean survival time, dose: 512.0 mg/kg/injection, schedule: Q01DX001 (oral), vehicle: saline): 100 % of control | T/C (endpoint: mean survival time, dose: 512.0 mg/kg/injection, schedule: Q04DX003 (ip), vehicle: saline): 96 % of control | T/C (endpoint: mean survival time, dose: 600.0 mg/kg/injection, schedule: Q04DX002 (ip), vehicle: saline): 94 % of control | T/C (endpoint: mean survival time, dose: 1024.0 mg/kg/injection, schedule: Q01DX001 (ip), vehicle: saline): 90 % of control | T/C (endpoint: mean survival time, dose: 1024.0 mg/kg/injection, schedule: Q01DX009 (ip), vehicle: saline): 95 % of control | T/C (endpoint: mean survival time, dose: 1024.0 mg/kg/injection, schedule: Q01DX009 (oral), vehicle: saline): 98 % of control | T/C (endpoint: mean survival time, dose: 1024.0 mg/kg/injection, schedule: Q04DX003 (oral), vehicle: saline): 100 % of control | T/C (endpoint: mean survival time, dose: 1200.0 mg/kg/injection, schedule: Q04DX002 (ip), vehicle: saline): 91 % of control | T/C (endpoint: mean survival time, dose: 2400.0 mg/kg/injection, schedule: Q04DX003 (ip), vehicle: saline): 96 % of control

O=C(Nc1ccc2c3c(cccc13)CC2)c1ccccc1
T/C [3]: 95 % of control | T/C [4]: 97 % of control | T/C [5]: 92 % of control

Cc1c2[nH]c(c1CCC(=O)O)/C=c1\[n-]/c(c(C)c1CCC(=O)O)=C\c1[n-]c(c(C)c1C(C)O)/C=c1\[nH]/c(c(C)c1C(C)O)=C\2.[Cl][Pt+2][Cl] (stereo unspecified)
T/C (endpoint: mean survival time, dose: 12.5 mg/kg/injection, schedule: Q04DX003 (ip), vehicle: Klucel (hydroxypropylcellulose) (HPC)): 88 % of control | T/C (endpoint: mean survival time, dose: 25.0 mg/kg/injection, schedule: Q04DX003 (ip), vehicle: Klucel (hydroxypropylcellulose) (HPC)): 90 % of control | T/C (endpoint: mean survival time, dose: 50.0 mg/kg/injection, schedule: Q04DX003 (ip), vehicle: Klucel (hydroxypropylcellulose) (HPC)): 93 % of control | T/C (endpoint: mean survival time, dose: 100.0 mg/kg/injection, schedule: Q04DX003 (ip), vehicle: Klucel (hydroxypropylcellulose) (HPC)): 88 % of control

c1ccc2c(c1)Nc1ccncc1S2
T/C [3]: 94 % of control | T/C [4]: 96 % of control | T/C [5]: 112 % of control

O=N[O-].[Co].[N-]=C=S.[NH2-].[NH2-].[NH2-].[NH2-]
T/C [7]: 115 % of control | T/C [8]: 115 % of control

COc1cc(/C=N\NC(=O)CNC(=O)Nc2cccc(Cl)c2)ccc1O
T/C [7]: 91 % of control | T/C [8]: 91 % of control | T/C (endpoint: mean survival time, dose: 50.0 mg/kg/injection, schedule: Q01DX009 (ip), vehicle: saline with Tween-80): 91 % of control

BrCc1c2ccccc2c(CBr)c2c1ccc1ccccc12
T/C (endpoint: mean survival time, dose: 25.0 mg/kg/injection, schedule: Q04DX002 (ip), vehicle: carboxymethylcellulose (CMC)): 105 % of control | T/C (endpoint: mean survival time, dose: 50.0 mg/kg/injection, schedule: Q04DX002 (ip), vehicle: carboxymethylcellulose (CMC)): 117 % of control | T/C [1]: 97 % of control | T/C (endpoint: mean survival time, dose: 100.0 mg/kg/injection, schedule: Q04DX002 (ip), vehicle: carboxymethylcellulose (CMC)): 113 % of control | T/C [2]: 117 % of control

Cc1ccc(S(=O)(=O)NN=C2CCC3(CC2)c2ccccc2-c2ccccc23)cc1
T/C (endpoint: mean survival time, dose: 100.0 mg/kg/injection, schedule: Q01DX001 (ip), vehicle: Klucel (hydroxypropylcellulose) (HPC)): 96 % of control | T/C (endpoint: mean survival time, dose: 200.0 mg/kg/injection, schedule: Q01DX001 (ip), vehicle: Klucel (hydroxypropylcellulose) (HPC)): 96 % of control | T/C (endpoint: mean survival time, dose: 400.0 mg/kg/injection, schedule: Q01DX001 (ip), vehicle: Klucel (hydroxypropylcellulose) (HPC)): 98 % of control
